Test results from PubChem BioAssay (NCI).
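Tested at 5 concentrations; 48 h exposure; 96-well plates; endpoints linearly interpolated, else capped at highest concentration. GI50 marks 50% less growth. TGI: total growth inhibition.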

Experiments:
Test in all cases: NCI anticancer screen, dose series, 48 h
OVCAR-3 ovarian = tested on: OVCAR-3 ovarian
HT29 colon = tested on: HT29 colon
HCT-15 colon = tested on: HCT-15 colon
EKVX NSCLC = tested on: EKVX NSCLC
MDA-MB-435 = tested on: MDA-MB-435
NCI-H460 lung = tested on: NCI-H460 lung
SNB-19 CNS = tested on: SNB-19 CNS
UACC-257 melanoma = tested on: UACC-257 melanoma
DU-145 prostate = tested on: DU-145 prostate
MDA-MB-231 breast = tested on: MDA-MB-231 breast

Row | SMILES | TGI (OVCAR-3 ovarian) [µM] | TGI (HT29 colon) [µM] | TGI (HCT-15 colon) [µM] | TGI (EKVX NSCLC) [µM] | TGI (MDA-MB-435) [µM] | TGI (NCI-H460 lung) [µM] | TGI (SNB-19 CNS) [µM] | TGI (UACC-257 melanoma) [µM] | TGI (DU-145 prostate) [µM] | TGI (MDA-MB-231 breast) [µM] | GI50 (OVCAR-3 ovarian) [µM] | GI50 (HT29 colon) [µM] | GI50 (HCT-15 colon) [µM] | GI50 (EKVX NSCLC) [µM] | GI50 (NCI-H460 lung) [µM] | GI50 (SNB-19 CNS) [µM] | GI50 (UACC-257 melanoma) [µM] | GI50 (MDA-MB-435) [µM] | GI50 (DU-145 prostate) [µM] | GI50 (MDA-MB-231 breast) [µM]
1 | O=C(Nc1ccc(I)cc1C(=O)NCCO)c1cccs1 | > 100 | > 100 | > 100 | > 100 | > 100 | > 100 | > 100 | > 100 |  |  |  |  |  |  |  |  |  |  |  | 
2 | Cc1ccc2c(c1)nc(N)n[n+]2[O-] | > 100 | > 100 | > 100 | > 100 | > 100 | > 100 | > 100 | > 100 | > 100 | > 100 |  |  |  |  |  |  |  |  |  | 
3 | Cc1cn(C2C=CC(COP(=O)(OCC3=CC(=O)c4ccccc4C3=O)N(C)CCCCCl)O2)c(=O)[nH]c1=O (centres undefined) | 19.1 | 29.4 | 20.9 |  | 3.35 | 11.2 | 25.6 | 13.9 | 3.06 | 25.5 |  |  |  |  |  |  |  |  |  | 
4 | O=[Se]([O-])c1ccccc1.O=[Se]([O-])c1ccccc1.[OH3+].[OH3+].[Pt+2] | 32.8 | 14.6 | 28.6 | 26 |  | > 86.1 | 33.7 | 11.8 |  |  | 7.91 | 3.09 | 6.02 | 6.34 | 18.6 | 10.9 | 2.96 |  |  | 
5 | Nc1ccccc1Nc1ccccc1C(=O)[O-].Nc1ccccc1Nc1ccccc1C(=O)[O-].[Cu+2] | > 100 | > 100 | > 100 | > 100 |  | > 100 | > 100 | > 100 |  |  |  |  |  |  |  |  |  |  |  | 
6 | O=C(NS(=O)(=O)Nc1ccc(Cl)cc1)OCc1ccc(Cl)cc1Cl | 36 | 51.2 | > 100 |  | 50.9 | 29.9 | 48.4 | > 100 | 46.5 | 65.7 |  |  |  |  |  |  |  |  |  | 
7 | COc1ccc(Nc2[nH]c(C(C)=O)c(N)c2C(=S)Nc2ccccc2)cc1 | > 100 | > 100 | > 100 | > 100 | > 100 | > 100 | > 100 | > 100 | > 100 | > 100 |  |  |  |  |  |  |  |  |  | 
8 | CCn1cc(C(c2ccc(Cl)cc2)n2ccnc2)c2cc(Br)ccc21 (centres undefined) | 22.2 | 22.3 | 30.6 | > 100 | 27 |  | 28.3 | 31.4 | 30.3 | 35.8 |  |  |  |  |  |  |  |  |  | 
9 | COc1cc2oc(-c3ccc(O)cc3)c(OC3OC(C)C(O)C(O)C3O)c(=O)c2c(O)c1OC (centres undefined) | > 100 | > 100 | > 100 | > 100 | > 100 | > 100 | > 100 | > 100 | > 100 | > 100 |  |  |  |  |  |  |  |  |  | 
10 | Nc1n[nH]c(=O)[nH]1 | > 100 | > 100 | > 100 | > 100 |  | > 100 | > 100 | > 100 |  |  |  |  |  |  |  |  |  |  |  | 
11 | N#Cc1c(NC(=S)NC(=O)c2ccccc2)nc2c(c1-c1ccccc1)CCC2 | > 100 | > 100 | > 100 | > 100 | > 100 | > 100 | > 100 | > 100 | > 100 | > 100 |  |  |  |  |  |  |  |  |  | 
12 | C=CC(=O)Nc1cccc(-c2nc(SC)nc(Nc3ccccc3OC)c2C#N)c1 | 3.58 |  |  | 10.4 | 4.48 |  | 6.51 | 8.78 | 4.96 | 4.33 | 1.87 |  |  | 2.71 |  | 2.31 | 2.53 | 1.93 | 1.92 | 1.83
13 | OCC1CCCC(n2cnc3c(=S)nc[nH]c32)O1 (centres undefined) | > 100 | > 100 | > 100 | > 100 | > 100 | > 100 | > 100 | > 100 | > 100 | > 100 |  |  |  |  |  |  |  |  |  | 
14 | O=C1CC(=O)N(c2ccccc2)N1/C(=C/c1ccccc1)c1ccccc1 | 57.1 | 44.2 |  | > 100 | 36.5 | 39 | 43.6 | 59.2 | 82.6 | 30 |  |  |  |  |  |  |  |  |  | 
15 | Cc1[nH]c(/C=C2\C(=O)Nc3ccc(S(=O)(=O)Cc4c(Cl)cccc4Cl)cc32)c(C)c1C(=O)N1CCC[C@@H]1CN1CCCC1 | 47.4 | 3.07 | 3.51 |  | 2.2 |  | 6.74 |  | 3.39 | 3.16 | 16 | 1.62 | 1.71 |  |  | 2.41 |  | 0.865 | 1.85 | 1.57
16 | O=C(O)c1ccc(NC(c2ccccc2)c2ccc3cccnc3c2O)cc1 (centres undefined) | 14.2 | > 100 | > 100 | > 85.6 | > 100 | > 48.5 | > 100 | 46.2 | > 100 | > 61.4 |  |  |  |  |  |  |  |  |  | 
17 | CCC(=O)C(c1ccccc1)c1ccccn1 (centres undefined) | > 100 | > 100 | > 100 | > 100 | > 100 | > 100 | > 100 | > 100 | > 100 | > 100 |  |  |  |  |  |  |  |  |  | 
18 | CC(C)CC(N)C(=O)OCN1C(=O)C2C3C=CC(C2C1=O)C1C2C(=O)N(COC(=O)C(N)CC(C)C)C(=O)C2C31 (centres undefined) | > 100 | > 100 | > 64.5 | > 100 |  | > 100 | > 100 | > 100 |  |  |  |  |  |  |  |  |  |  |  | 
19 | COC1OC(=O)[C@H]2O[N+]([O-])=C(C)[C@@H]12 (some centres undefined) | > 100 | > 100 | > 100 | > 100 |  | > 100 | > 100 | > 100 |  |  |  |  |  |  |  |  |  |  |  | 
